Results taken from US20250171407A1, “ULTRAVIOLET ABSORBER” (BASF SE, priority 2022, published 2025).

Experiment: Solubility test: visual assessment of defects in the dried paint of the stabilized coating formulation
Type: physicochemical
Text: Each coating formulation A was stabilized with 1.0 or 3.0 active % based on resin solids of Tinuvin® 1130 (UV absorber, BASF SE), Tinuvin® 9945-DW (N) or inventive examples samples.
Each coating formulation further contained 1,0 active % based on resin solids of Tinuvin® 123DW (N) (HALS, BASF SE).
The clear coat formulations were subsequently applied by brush onto a wood substrate (thickness: two layers à 100 g/m^2 resulting after drying at room temperature in a final dry film thickness of ˜40 μm). The clear coat formulations were subsequently applied by draw-down onto a glass plate (thickness: one layer b 200 g/m^2 resulting after drying at room temperature in a final dry film thickness of ˜40 μm).
The solubility of above-described coating formulation containing one of the compounds obtained in examples 3, 11 and 27 in the amount given above was tested. The solubility was visually assessed qualitatively by presence of defects in the dried paint.

Presence of defects: no
Substance: Tinuvin® 1130 [Example 27]
